These results are taken from paper PMC6471177 (Pharmaceutics, 2019).

One series deals with P-gp. As to the kind of experiment: in vitro. The settings on record: rat, pH 7.4. The protocol:
To evaluate the effect of LC478 on P-gp mediated efflux activity in rat’s small intestine, transport experiments were conducted following the previously reported method. The incubation medium (pH 7.4) involving […], 5 mM KCl, 1.2 mM CaCl2, 1.2 mM MgCl2, 25 mM NaHCO3, 1.6 mM Na2HPO4, 0.4 mM NaH2PO4, 5 mM D-glucose, and 5 mM D-mannitol was used throughout the transport experiments. […] The small intestine (2 cm from the proximal part of jejunum) was removed, opened along the mesenteric border and rinsed immediately in ice-cold buffer (pH 7.4) under carbogen O2/CO2 (95%/5%) bubbling. The specimens were fixed to 0.61 cm^2 surface area of cells in the Ussing chambers without harming the underlying muscle layer and formed two compartments, mucosal (M) and serosal (S) chambers. […] Cumulative corrections were made for previously removed samples and apparent permeability coefficients (Papp, cm/s) were calculated as follows: Papp = Q/A·c·t, where Q is the total amount of the drug permeated throughout the incubation time, A is the diffusion area of the Ussing chamber, c is the initial drug concentration in the donor compartment, and t is the total time of the experiment. Efflux ratios were calculated from Papp values by: Efflux ratio = secretory Papp/absorptive Papp.

For series [1] the following is noted: cited from earlier work.

In the series on P-gp, `CC(=O)O[C@@]12CO[C@@H]1C[C@H](O)[C@@]1(C)C(=O)[C@H](O)C3=C(C)[C@@H](OC(=O)[C@H](O)[C@@H](NC(=O)OC(C)(C)C)c4ccccc4)C[C@@](O)([C@@H](OC(=O)c4ccccc4)[C@H]21)C3(C)C` [docetaxel] registered an apparent permeability from basolateral to apical (Papp B→A) at 3 h, 1 µM of 1.08 ± 0.115 ×10⁻⁶ cm/s. Further, the oral bioavailability result in series [1] was “less than 5 % of the oral dose”.
